Experimental data published in patent US6677466B1, “Method for stabilizing hydrogen peroxide” (DSM Fine Chemicals Austria NFG GmbH & Co KG, priority 1999, dated 2004).

Experiment: O2 evolution from RuO2.xH2O-catalysed decomposition of H2O2 with stabilizer
Format: physicochemical
Method: A 50% strength aqueous solution of H2O2 (304 mg; 4.46 mmol) was added to 454 mg (4.46 mmol) of methyl pyruvate and to 535 mg (4.46 mmol) of glyoxylic methyl ester methyl hemiacetal, respectively. In the case of methyl pyruvate, a marked evolution of heat was discovered during the addition. After one hour, the H2O2/α-keto ester mixture was mixed with 1 ml of solvent and added to a suspension of 2.5 mg of RuO2.xH2O catalyst (Aldrich) in 4 ml of solvent. The suspension was introduced into a 50 ml flask which was maintained at room temperature in a water bath.
As a comparison, a suspension of 2.5 mg of RuO2.xH2O catalyst (Aldrich) in 4 ml of solvent was combined with a 50% strength aqueous solution of H2O2 (304 mg; 4.46 mmol) and 1 ml of solvent without stabilizer.
The amount of oxygen which […] the decomposition of the hydrogen peroxide was determined as a function of time using a Brooks meter, which permitted measurement of the gas flow and of the total amount of evolved gas.
The amount of oxygen is defined here as % of the maximum amount to be calculated on the basis of stoichiometry.

With `COC(=O)C(C)=O` [methyl pyruvate] the “O2 evolution V(O2) (Vmax(O2)*100%)” value (solv. acetic acid, t 1 min) was 0%, the “O2 evolution V(O2) (Vmax(O2)*100%)” value (solv. acetic acid, t 2 min) was 0% and the “O2 evolution V(O2) (Vmax(O2)*100%)” value (solv. acetic acid, t 5 min) was 2%. The “O2 evolution V(O2) (Vmax(O2)*100%)” value (solv. acetic acid, t 10 min) was 4%, the “O2 evolution V(O2) (Vmax(O2)*100%)” value (solv. acetic acid, t 15 min) was 4% and the “O2 evolution V(O2) (Vmax(O2)*100%)” value (solv. acetic acid, t 20 min) was 4%. The “O2 evolution V(O2) (Vmax(O2)*100%)” value (solv. acetic acid, t 25 min) was 4%, the “O2 evolution V(O2) (Vmax(O2)*100%)” value (solv. acetic acid, t 30 min) was 4% and the “O2 evolution V(O2) (Vmax(O2)*100%)” value (solv. acetic acid, t 35 min) was 4%. For the same compound, the “O2 evolution V(O2) (Vmax(O2)*100%)” value (solv. acetic acid, t 40 min) was 4%, the “O2 evolution V(O2) (Vmax(O2)*100%)” value (solv. acetone, t 1 min) was 10% and the “O2 evolution V(O2) (Vmax(O2)*100%)” value (solv. acetone, t 2 min) was 20%. For the same compound, the “O2 evolution V(O2) (Vmax(O2)*100%)” value (solv. acetone, t 5 min) was 29%, the “O2 evolution V(O2) (Vmax(O2)*100%)” value (solv. acetone, t 10 min) was 29% and the “O2 evolution V(O2) (Vmax(O2)*100%)” value (solv. acetone, t 15 min) was 29%. The “O2 evolution V(O2) (Vmax(O2)*100%)” value (solv. acetone, t 20 min) was 29%, the “O2 evolution V(O2) (Vmax(O2)*100%)” value (solv. acetone, t 25 min) was 29% and the “O2 evolution V(O2) (Vmax(O2)*100%)” value (solv. acetone, t 30 min) was 29%. For the same compound, the “O2 evolution V(O2) (Vmax(O2)*100%)” value (solv. acetone, t 35 min) was 29%, the “O2 evolution V(O2) (Vmax(O2)*100%)” value (solv. acetone, t 40 min) was 29% and the “O2 evolution V(O2) (Vmax(O2)*100%)” value (solv. acetonitrile, t 1 min) was 9%. The “O2 evolution V(O2) (Vmax(O2)*100%)” value (solv. acetonitrile, t 2 min) was 18%, the “O2 evolution V(O2) (Vmax(O2)*100%)” value (solv. acetonitrile, t 5 min) was 30% and the “O2 evolution V(O2) (Vmax(O2)*100%)” value (solv. acetonitrile, t 10 min) was 40%. The “O2 evolution V(O2) (Vmax(O2)*100%)” value (solv. acetonitrile, t 15 min) was 47%, the “O2 evolution V(O2) (Vmax(O2)*100%)” value (solv. acetonitrile, t 20 min) was 51% and the “O2 evolution V(O2) (Vmax(O2)*100%)” value (solv. acetonitrile, t 25 min) was 53%. The “O2 evolution V(O2) (Vmax(O2)*100%)” value (solv. acetonitrile, t 30 min) was 53%, the “O2 evolution V(O2) (Vmax(O2)*100%)” value (solv. acetonitrile, t 35 min) was 53% and the “O2 evolution V(O2) (Vmax(O2)*100%)” value (solv. acetonitrile, t 40 min) was 53%. For the same compound, the “O2 evolution V(O2) (Vmax(O2)*100%)” value (solv. ethyl acetate, t 1 min) was 8%, the “O2 evolution V(O2) (Vmax(O2)*100%)” value (solv. ethyl acetate, t 2 min) was 12% and the “O2 evolution V(O2) (Vmax(O2)*100%)” value (solv. ethyl acetate, t 5 min) was 20%. For the same compound, the “O2 evolution V(O2) (Vmax(O2)*100%)” value (solv. ethyl acetate, t 10 min) was 29%, the “O2 evolution V(O2) (Vmax(O2)*100%)” value (solv. ethyl acetate, t 15 min) was 32% and the “O2 evolution V(O2) (Vmax(O2)*100%)” value (solv. ethyl acetate, t 20 min) was 37%. For the same compound, the “O2 evolution V(O2) (Vmax(O2)*100%)” value (solv. ethyl acetate, t 25 min) was 40%, the “O2 evolution V(O2) (Vmax(O2)*100%)” value (solv. ethyl acetate, t 30 min) was 42% and the “O2 evolution V(O2) (Vmax(O2)*100%)” value (solv. ethyl acetate, t 35 min) was 47%. For the same compound, the “O2 evolution V(O2) (Vmax(O2)*100%)” value (solv. ethyl acetate, t 40 min) was 50%, the “O2 evolution V(O2) (Vmax(O2)*100%)” value (solv. methanol, t 1 min) was 10% and the “O2 evolution V(O2) (Vmax(O2)*100%)” value (solv. methanol, t 2 min) was 19%. The “O2 evolution V(O2) (Vmax(O2)*100%)” value (solv. methanol, t 5 min) was 32%, the “O2 evolution V(O2) (Vmax(O2)*100%)” value (solv. methanol, t 10 min) was 43% and the “O2 evolution V(O2) (Vmax(O2)*100%)” value (solv. methanol, t 15 min) was 49%. The “O2 evolution V(O2) (Vmax(O2)*100%)” value (solv. methanol, t 20 min) was 52%, the “O2 evolution V(O2) (Vmax(O2)*100%)” value (solv. methanol, t 25 min) was 53% and the “O2 evolution V(O2) (Vmax(O2)*100%)” value (solv. methanol, t 30 min) was 53%. The “O2 evolution V(O2) (Vmax(O2)*100%)” value (solv. methanol, t 35 min) was 53%, the “O2 evolution V(O2) (Vmax(O2)*100%)” value (solv. methanol, t 40 min) was 53% and the “O2 evolution V(O2) (Vmax(O2)*100%)” value (solv. t-butanol, t 1 min) was 2%. The “O2 evolution V(O2) (Vmax(O2)*100%)” value (solv. t-butanol, t 2 min) was 5%, the “O2 evolution V(O2) (Vmax(O2)*100%)” value (solv. t-butanol, t 5 min) was 10% and the “O2 evolution V(O2) (Vmax(O2)*100%)” value (solv. t-butanol, t 10 min) was 18%. The “O2 evolution V(O2) (Vmax(O2)*100%)” value (solv. t-butanol, t 15 min) was 21%, the “O2 evolution V(O2) (Vmax(O2)*100%)” value (solv. t-butanol, t 20 min) was 23% and the “O2 evolution V(O2) (Vmax(O2)*100%)” value (solv. t-butanol, t 25 min) was 25%. For the same compound, the “O2 evolution V(O2) (Vmax(O2)*100%)” value (solv. t-butanol, t 30 min) was 25%, the “O2 evolution V(O2) (Vmax(O2)*100%)” value (solv. t-butanol, t 35 min) was 25% and the “O2 evolution V(O2) (Vmax(O2)*100%)” value (solv. t-butanol, t 40 min) was 25%. For the same compound, the “O2 evolution V(O2) (Vmax(O2)*100%)” value (solv. water, t 1 min) was 9%, the “O2 evolution V(O2) (Vmax(O2)*100%)” value (solv. water, t 2 min) was 17% and the “O2 evolution V(O2) (Vmax(O2)*100%)” value (solv. water, t 5 min) was 30%. The “O2 evolution V(O2) (Vmax(O2)*100%)” value (solv. water, t 10 min) was 40%, the “O2 evolution V(O2) (Vmax(O2)*100%)” value (solv. water, t 15 min) was 48% and the “O2 evolution V(O2) (Vmax(O2)*100%)” value (solv. water, t 20 min) was 51%. The “O2 evolution V(O2) (Vmax(O2)*100%)” value (solv. water, t 25 min) was 55%, the “O2 evolution V(O2) (Vmax(O2)*100%)” value (solv. water, t 30 min) was 55% and the “O2 evolution V(O2) (Vmax(O2)*100%)” value (solv. water, t 35 min) was 55%. The “O2 evolution V(O2) (Vmax(O2)*100%)” value (solv. water, t 40 min) was 55%.
